What follows are compounds tested on fungal tyrosinase (assay: in vitro inhibition test of the activity of tyrosinase (dopachrome formation, 475 nm)). Conditions: inhibitor at 50 mol % with respect to tyrosine; lowering of maximum dopachrome (OD 475 nm at plateau) vs no inhibitor; pH 6.5, 25° C.
Assay type: biochemical
Description: According to this test, the amount of dopachrome formed during the chain of reactions of conversion of tyrosine to melanins is monitored by visible spectrometry at 475 nm.
The concentration of dopachrome formed with time in the presence and in the absence of the inhibitor thus measured.
The inhibitor concentrations are set at 50 mol % with respect to the concentration of tyrosine in the reaction medium.
The inhibition effect is expressed by the lowering in the maximum amount of dopachrome formed (optical density value at 475 nm read at the plateau of the curve) with respect to the amount obtained in the absence of inhibitor.
A - 0.1M Phosphate buffer, pH=6.5 (1% Tween 20)
B - 2.10^-3 M Mother solution of L-tyrosine in A
C - 10^-4 M Mother solution of L-dopa in A
D - Mother solution of fungal tyrosinase in A containing 2,400 units/ml
E - 10^-2 M Mother solution of the inhibitor in A (Solutions C and D are to be prepared on the day)
reference cell: 3 ml of A
homogenize and equilibrate at 25° C.
mix rapidly and observe the kinetics by measuring the absorbence at 475 nm as a function of time.

% change in maximum dopachrome vs no inhibitor [%]	Structure (SMILES)
-90	CSc1ccc(O)cc1O
-88	CCSc1ccc(O)cc1O
-95	Oc1ccc(SCc2ccccc2)c(O)c1
-79	Oc1ccc(SCCSc2ccc(O)cc2O)c(O)c1
-76	CCCSc1ccc(O)cc1O
-84	CC(C)Sc1ccc(O)cc1O
-94	CCOC(=O)CSc1ccc(O)cc1O
-65	Oc1ccc(SCCCN2CCOCC2)c(O)c1

Structure (SMILES)	% change in maximum dopachrome vs no inhibitor [%]
Oc1ccc(O)cc1 [hydroquinone, reference compound]	-33
